Assay results from patent publication US11020395B2, “Cycloalkyl substituted triazole compounds as agonists of the APJ receptor” (AMGEN INC., priority 2016, dated 2021).

target: human APJ receptor (Homo sapiens (Human), UniProt P35414); test: [35S]GTPγS binding assay on membranes from CHO cells stably expressing human APJ receptor; assay type: biochemical; details: [35S]GTPγS SPA, read-out: Activity hAPJ SPA EC50 IP
Description: [^35S]GTPγS Binding The human APJ receptor was cloned by polymerase chain reaction and the gene encoding the receptor was subcloned in pFLAG-CMV™-3 expression vector (Sigma, Saint Louis, Mo. USA) in-house at Amgen. A GTPγS binding assay was performed on membranes prepared from CHO cells stably expressing human APJ receptor. The optimum experimental conditions for the concentrations of GDP, MgCl2, and NaCl in the assay buffer were initially determined. […] Incubation was at RT for 90 min and the microplate was read using a ViewLux™ ultra HTS Microplate Imager (PerkinElmer, Inc.). All the results presented are means of several independent experiments and analyzed by non-linear regression methods using the commercially available program Prism (GraphPad, San Diego, Calif.) providing the EC50 values detailed in Table 25.

Chain of human APJ receptor (P35414 whole entry): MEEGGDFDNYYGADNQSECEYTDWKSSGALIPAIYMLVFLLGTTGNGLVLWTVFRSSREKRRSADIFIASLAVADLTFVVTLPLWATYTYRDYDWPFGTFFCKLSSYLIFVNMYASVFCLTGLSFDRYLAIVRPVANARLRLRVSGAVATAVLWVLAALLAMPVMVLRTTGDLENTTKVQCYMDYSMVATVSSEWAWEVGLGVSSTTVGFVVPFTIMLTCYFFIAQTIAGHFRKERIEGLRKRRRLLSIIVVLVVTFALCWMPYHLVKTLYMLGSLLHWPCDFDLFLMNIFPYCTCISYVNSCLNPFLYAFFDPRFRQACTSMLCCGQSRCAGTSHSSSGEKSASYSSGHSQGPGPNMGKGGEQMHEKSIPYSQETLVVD

| Structure (SMILES) | EC50 |
| --- | --- |
| COc1cccc(OC)c1-n1c(NS(=O)(=O)[C@@H](C)[C@@H](OC(C)C)c2ncc(C)cn2)nnc1[C@@H]1CCC(F)(F)C1 (mixture of isomers) [Example 232.0, (1S,2S)-N-(5-((1R)-3,3-difluorocyclopentyl)-4-(2,6-dimethoxyphenyl)-4H-1,2,4-triazol-3-yl)-1-(5-methyl-2-pyrimidinyl)-1-(2-propanyloxy)-2-propanesulfonamide and (1S,2S)-N-(5-((1S)-3,3-difluorocyclopentyl)-4-(2,6-dimethoxyphenyl)-4H-1,2,4-triazol-3-yl)-1-(5-methyl-2-pyrimidinyl)-1-(2-propanyloxy)-2-propanesulfonamide] | 42 nM |
| COc1ncnc(OC)c1-n1c(NS(=O)(=O)[C@@H](C)[C@H](OC)c2ncc(Cl)cn2)nnc1[C@H]1CC[C@H]1C(F)F (racemic) [Example 146.0] | 26 nM |
| COc1cccc(OC)c1-n1c(NS(=O)(=O)[C@@H](C)[C@@H](OC(C)C)c2ncc(C)cn2)nnc1[C@H]1C[C@@H](OC)C1 (racemic) [Example 227.0, (1S,2S)-N-(4-(2,6-dimethoxyphenyl)-5-(trans-3-methoxycyclobutyl)-4H-1,2,4-triazol-3-yl)-1-(5-methyl-2-pyrimidinyl)-1-(2-propanyloxy)-2-propanesulfonamide or (1S,2S)-N-(4-(2,6-dimethoxyphenyl)-5-(cis-3-methoxycyclobutyl)-4H-1,2,4-triazol-3-yl)-1-(5-methyl-2-pyrimidinyl)-1-(2-propanyloxy)-2-propanesulfonamide] | 2.7 nM |
| COc1ncnc(OC)c1-n1c(NS(=O)(=O)[C@@H](C)[C@H](OC)c2ccc(Cl)cn2)nnc1C1CCC1 (single isomer, unassigned) [Example 91.0, (1R,2S)-1-(5-chloropyridin-2-yl)-N-(5-cyclobutyl-4-(4,6-dimethoxypyrimidin-5-yl)-4H-1,2,4-triazol-3-yl)-1-methoxypropane-2-sulfonamide or (1S,2R)-1-(5-chloropyridin-2-yl)-N-(5-cyclobutyl-4-(4,6-dimethoxypyrimidin-5-yl)-4H-1,2,4-triazol-3-yl)-1-methoxypropane-2-sulfonamide] | 2.9 nM |
| COc1ncnc(OC)c1-n1c(NS(=O)(=O)[C@@H](C)[C@H](OC)c2ncc(Cl)cn2)nnc1[C@H]1CC1(F)F (single isomer, unassigned) [Example 100.0, (1R,2S)-1-(5-chloropyrimidin-2-yl)-N-(5-((R)-2,2-difluorocyclopropyl)-4-(4,6-dimethoxypyrimidin-5-yl)-4H-1,2,4-triazol-3-yl)-1-methoxypropane-2-sulfonamide or (1R,2S)-1-(5-chloropyrimidin-2-yl)-N-(5-((S)-2,2-difluorocyclopropyl)-4-(4,6-dimethoxypyrimidin-5-yl)-4H-1,2,4-triazol-3-yl)-1-methoxypropane-2-sulfonamide] | 140 nM |
| COc1ncnc(OC)c1-n1c(NS(=O)(=O)[C@@H](C)[C@H](OC)c2ncc(Cl)cn2)nnc1[C@H]1CC1(F)F (single isomer, unassigned) [Example 101.0, (1R,2S)-1-(5-chloropyrimidin-2-yl)-N-(5-((R)-2,2-difluorocyclopropyl)-4-(4,6-dimethoxypyrimidin-5-yl)-4H-1,2,4-triazol-3-yl)-1-methoxypropane-2-sulfonamide or (1R,2S)-1-(5-chloropyrimidin-2-yl)-N-(5-((S)-2,2-difluorocyclopropyl)-4-(4,6-dimethoxypyrimidin-5-yl)-4H-1,2,4-triazol-3-yl)-1-methoxypropane-2-sulfonamide] | 60 nM |
